# Measured values taken from PMC5975062 (Alzheimer's & Dementia : Translational Research & Clinical …, 2015).
# Marks after values point to notes of the source that are not given here.
# Assay: Safety and tolerability
# Assay type: in vivo, human
# [1] = 20 mg bid 11 d solution, fasted, nonelderly
# [2] = 50 mg bid 11 d solution, fasted, nonelderly
# [3] = 100 mg bid 11 d solution, fed, nonelderly
# [4] = 200 mg bid 7 d capsule, fasted, elderly
# [5] = 200 mg bid 11 d solution, fasted, nonelderly
# [6] = 300 mg bid 7 d capsule, fasted, elderly
# [7] = 400 mg bid 11 d capsule, fasted, nonelderly
# [8] = 500 mg bid 11 d capsule, fed, nonelderly
# [9] = 500 mg bid 11 d tablet, fasted, elderly
# [10] = 800 mg bid 11 d tablet, fasted, elderly
smiles,measurement,setting,value
CCCOc1ccc([C@H]2CNC(=O)N2c2ccc3[nH]cnc3c2)cc1 [PQ912],"Abdominal pain, number of TEAEs",[1],1 [1]
same,"Abdominal pain, number of subjects",[1],1 [1]
same,"Headache, number of TEAEs",[1],7
same,"Headache, number of subjects",[1],3
same,"Neck pain, number of TEAEs",[1],1 [1]
same,"Neck pain, number of subjects",[1],1 [1]
same,Number of AEs,[1],16
same,"Subjects with AEs, number",[1],7
same,"Subjects with AEs, percentage of total subjects",[1],87.5%
same,"Abdominal pain, number of TEAEs",[2],1 [1]
same,"Abdominal pain, number of subjects",[2],1 [1]
same,"Chest pain, number of TEAEs",[2],1 [1]
same,"Chest pain, number of subjects",[2],1 [1]
same,"Dizziness, number of TEAEs",[2],1 [1]
same,"Dizziness, number of subjects",[2],1 [1]
same,"Headache, number of TEAEs",[2],8
same,"Headache, number of subjects",[2],4
same,"Injection site pain, number of TEAEs",[2],6
same,"Injection site pain, number of subjects",[2],5
same,"Nausea, number of TEAEs",[2],1 [1]
same,"Nausea, number of subjects",[2],1 [1]
same,Number of AEs,[2],22
same,"Subjects with AEs, number",[2],7
same,"Subjects with AEs, percentage of total subjects",[2],87.5%
same,"Back pain, number of TEAEs",[3],1 [1]
same,"Back pain, number of subjects",[3],1 [1]
same,"Chest pain, number of TEAEs",[3],1 [1]
same,"Chest pain, number of subjects",[3],1 [1]
same,"Headache, number of TEAEs",[3],4
same,"Headache, number of subjects",[3],3
same,"Injection site pain, number of TEAEs",[3],3 [3]
same,"Injection site pain, number of subjects",[3],3 [3]
same,Number of AEs,[3],16
same,"Presyncope, number of TEAEs",[3],6 [6]
same,"Presyncope, number of subjects",[3],6 [6]
same,"Subjects with AEs, number",[3],8
same,"Subjects with AEs, percentage of total subjects",[3],100.0%
same,Number of AEs,[4],3
same,"Subjects with AEs, number",[4],3
same,"Subjects with AEs, percentage of total subjects",[4],50.0%
same,"Abdominal pain, number of TEAEs",[5],1 [1]
same,"Abdominal pain, number of subjects",[5],1 [1]
same,"Back pain, number of TEAEs",[5],1 [1]
same,"Back pain, number of subjects",[5],1 [1]
same,"Chest pain, number of TEAEs",[5],1 [1]
same,"Chest pain, number of subjects",[5],1 [1]
same,"Diarrhea, number of TEAEs",[5],1 [1]
same,"Diarrhea, number of subjects",[5],1 [1]
same,"Flatulence, number of TEAEs",[5],1 [1]
same,"Flatulence, number of subjects",[5],1 [1]
same,"Nausea, number of TEAEs",[5],1 [1]
same,"Nausea, number of subjects",[5],1 [1]
same,"Neck pain, number of TEAEs",[5],1 [1]
same,"Neck pain, number of subjects",[5],1 [1]
same,Number of AEs,[5],11
same,"Subjects with AEs, number",[5],6
same,"Subjects with AEs, percentage of total subjects",[5],75.0%
same,"Back pain, number of TEAEs",[6],1 [1]
same,"Back pain, number of subjects",[6],1 [1]
same,"Headache, number of TEAEs",[6],4 [4]
same,"Headache, number of subjects",[6],4 [4]
same,"Injection site pain, number of TEAEs",[6],4 [4]
same,"Injection site pain, number of subjects",[6],4 [4]
same,Number of AEs,[6],13
same,"Pain in extremity, number of TEAEs",[6],2
same,"Pain in extremity, number of subjects",[6],1
same,"Subjects with AEs, number",[6],6
same,"Subjects with AEs, percentage of total subjects",[6],75.0%
same,"Abdominal pain, number of TEAEs",[7],1 [1]
same,"Abdominal pain, number of subjects",[7],1 [1]
same,"Back pain, number of TEAEs",[7],1 [1]
same,"Back pain, number of subjects",[7],1 [1]
same,"Headache, number of TEAEs",[7],4
same,"Headache, number of subjects",[7],3
same,Number of AEs,[7],9
same,"Presyncope, number of TEAEs",[7],1 [1]
same,"Presyncope, number of subjects",[7],1 [1]
same,"Subjects with AEs, number",[7],5
same,"Subjects with AEs, percentage of total subjects",[7],62.5%
same,"Abdominal pain, number of TEAEs",[8],1 [1]
same,"Abdominal pain, number of subjects",[8],1 [1]
same,"Abnormal sensation in eye, number of TEAEs",[8],2 [2]
same,"Abnormal sensation in eye, number of subjects",[8],2 [2]
same,"Back pain, number of TEAEs",[8],5
same,"Back pain, number of subjects",[8],4
same,"Diarrhea, number of TEAEs",[8],1 [1]
same,"Diarrhea, number of subjects",[8],1 [1]
same,"Dizziness, number of TEAEs",[8],2 [2]
same,"Dizziness, number of subjects",[8],2 [2]
same,"Headache, number of TEAEs",[8],3 [3]
same,"Headache, number of subjects",[8],3 [3]
same,"Nausea, number of TEAEs",[8],1 [1]
same,"Nausea, number of subjects",[8],1 [1]
same,Number of AEs,[8],30 ^‡
same,"Pain in extremity, number of TEAEs",[8],2 [2]
same,"Pain in extremity, number of subjects",[8],2 [2]
same,"Subjects with AEs, number",[8],8
same,"Subjects with AEs, percentage of total subjects",[8],100.0%
same,"Abdominal pain, number of TEAEs",[9],1 [1]
same,"Abdominal pain, number of subjects",[9],1 [1]
same,"Back pain, number of TEAEs",[9],1 [1]
same,"Back pain, number of subjects",[9],1 [1]
same,"Constipation, number of TEAEs",[9],2 [2]
same,"Constipation, number of subjects",[9],2 [2]
same,"Contusion, number of TEAEs",[9],3
same,"Contusion, number of subjects",[9],2
same,"Diarrhea, number of TEAEs",[9],1 [1]
same,"Diarrhea, number of subjects",[9],1 [1]
same,"Dizziness, number of TEAEs",[9],2
same,"Dizziness, number of subjects",[9],1
same,"Headache, number of TEAEs",[9],4
same,"Headache, number of subjects",[9],2
same,"Injection site pain, number of TEAEs",[9],1 [1]
same,"Injection site pain, number of subjects",[9],1 [1]
same,"Nausea, number of TEAEs",[9],4
same,"Nausea, number of subjects",[9],3
same,Number of AEs,[9],32
same,"Subjects with AEs, number",[9],9
same,"Subjects with AEs, percentage of total subjects",[9],75.0%
same,"Chest pain, number of TEAEs",[10],2
same,"Chest pain, number of subjects",[10],1
same,"Constipation, number of TEAEs",[10],2 [2]
same,"Constipation, number of subjects",[10],2 [2]
same,"Contusion, number of TEAEs",[10],1 [1]
same,"Contusion, number of subjects",[10],1 [1]
same,"Diarrhea, number of TEAEs",[10],1 [1]
same,"Diarrhea, number of subjects",[10],1 [1]
same,"Flatulence, number of TEAEs",[10],3 [3]
same,"Flatulence, number of subjects",[10],3 [3]
same,"Headache, number of TEAEs",[10],2 [2]
same,"Headache, number of subjects",[10],2 [2]
same,"Nausea, number of TEAEs",[10],2 [2]
same,"Nausea, number of subjects",[10],2 [2]
same,"Neck pain, number of TEAEs",[10],1 [1]
same,"Neck pain, number of subjects",[10],1 [1]
same,Number of AEs,[10],34
same,"Pollakiuria, number of TEAEs",[10],2 [2]
same,"Pollakiuria, number of subjects",[10],2 [2]
same,"Subjects with AEs, number",[10],6
same,"Subjects with AEs, percentage of total subjects",[10],100%
same,subjects withdrawn because of a TEAE (urticaria papular),"500-mg bid, 11 days, capsule, fed, about 3.5 hours after the 18th dose",One subject
same,"drug-related TEAEs, events","after multiple doses, 102 subjects (PQ912 or placebo)",113
same,subjects reporting drug-related TEAEs,"after multiple doses, of 102 subjects (PQ912 or placebo)",47
same,"drug-related TEAEs, events","after single doses, 104 subjects (PQ912 or placebo)",25
same,subjects reporting drug-related TEAEs,"after single doses, of 104 subjects (PQ912 or placebo)",16
same,subjects with clinically significant changes in clinical laboratory parameters,"increases in serum potassium, erythrocytes, leukocytes",four subjects
same,"Back pain, number of TEAEs","single 30 mg solution, fasted",1 [1]
same,"Back pain, number of subjects","single 30 mg solution, fasted",1 [1]
same,Number of AEs,"single 30 mg solution, fasted",2
same,"Subjects with AEs, number","single 30 mg solution, fasted",2
same,"Subjects with AEs, percentage of total subjects","single 30 mg solution, fasted",33.3%
same,"Back pain, number of TEAEs","single 50 mg solution, fasted",1 [1]
same,"Back pain, number of subjects","single 50 mg solution, fasted",1 [1]
same,"Fatigue, number of TEAEs","single 50 mg solution, fasted",1 [1]
same,"Fatigue, number of subjects","single 50 mg solution, fasted",1 [1]
same,"Headache, number of TEAEs","single 50 mg solution, fasted",3
same,"Headache, number of subjects","single 50 mg solution, fasted",2
same,"Injection site pain, number of TEAEs","single 50 mg solution, fasted",1 [1]
same,"Injection site pain, number of subjects","single 50 mg solution, fasted",1 [1]
same,"Nausea, number of TEAEs","single 50 mg solution, fasted",1 [1]
same,"Nausea, number of subjects","single 50 mg solution, fasted",1 [1]
same,Number of AEs,"single 50 mg solution, fasted",11
same,"Subjects with AEs, number","single 50 mg solution, fasted",5
same,"Subjects with AEs, percentage of total subjects","single 50 mg solution, fasted",83.3%
same,"Vomiting, number of TEAEs","single 50 mg solution, fasted",2
same,"Vomiting, number of subjects","single 50 mg solution, fasted",1
same,"Back pain, number of TEAEs","single 100 mg solution, fasted",3 [3]
same,"Back pain, number of subjects","single 100 mg solution, fasted",3 [3]
same,"Fatigue, number of TEAEs","single 100 mg solution, fasted",1 [1]
same,"Fatigue, number of subjects","single 100 mg solution, fasted",1 [1]
same,Number of AEs,"single 100 mg solution, fasted",7
same,"Subjects with AEs, number","single 100 mg solution, fasted",3
same,"Subjects with AEs, percentage of total subjects","single 100 mg solution, fasted",37.5%
same,"Back pain, number of TEAEs","single 400 mg solution, fasted",2 [2]
same,"Back pain, number of subjects","single 400 mg solution, fasted",2 [2]
same,"Headache, number of TEAEs","single 400 mg solution, fasted",1 [1]
same,"Headache, number of subjects","single 400 mg solution, fasted",1 [1]
same,"Injection site pain, number of TEAEs","single 400 mg solution, fasted",1 [1]
same,"Injection site pain, number of subjects","single 400 mg solution, fasted",1 [1]
same,Number of AEs,"single 400 mg solution, fasted",7
same,"Presyncope, number of TEAEs","single 400 mg solution, fasted",1 [1]
same,"Presyncope, number of subjects","single 400 mg solution, fasted",1 [1]
same,"Subjects with AEs, number","single 400 mg solution, fasted",4
same,"Subjects with AEs, percentage of total subjects","single 400 mg solution, fasted",33.3%
same,"Nausea, number of TEAEs","single 800 mg capsule, fasted",1 [1]
same,"Nausea, number of subjects","single 800 mg capsule, fasted",1 [1]
same,Number of AEs,"single 800 mg capsule, fasted",2
same,"Subjects with AEs, number","single 800 mg capsule, fasted",1
same,"Subjects with AEs, percentage of total subjects","single 800 mg capsule, fasted",16.7%
same,"Vomiting, number of TEAEs","single 800 mg capsule, fasted",1 [1]
same,"Vomiting, number of subjects","single 800 mg capsule, fasted",1 [1]
same,"Headache, number of TEAEs","single 1200 mg capsule, fed",1 [1]
same,"Headache, number of subjects","single 1200 mg capsule, fed",1 [1]
same,Number of AEs,"single 1200 mg capsule, fed",2
same,"Subjects with AEs, number","single 1200 mg capsule, fed",1
same,"Subjects with AEs, percentage of total subjects","single 1200 mg capsule, fed",16.7%
same,"Nausea, number of TEAEs","single 1800 mg tablet, fasted",2 [2]
same,"Nausea, number of subjects","single 1800 mg tablet, fasted",2 [2]
same,Number of AEs,"single 1800 mg tablet, fasted",2
same,"Subjects with AEs, number","single 1800 mg tablet, fasted",2
same,"Subjects with AEs, percentage of total subjects","single 1800 mg tablet, fasted",33.3%
same,overall safety and tolerability,"single doses up to 3600 mg, bid doses up to 800 mg",safe and well tolerated
same,serious adverse events,whole study,no serious adverse events
same,"vital signs, 12-lead ECGs, telemetry, physical examinations",whole study,no clinically significant findings
